# Measurements taken from ChEMBL document CHEMBL1201862, “PubChem BioAssay data set” (2004).
#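 Assay format: 96-well plates, 48-hour exposure. GI50 marks 50% less growth.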 Active and inactive are the calls of the source. Cut-off read from the data, not from the text of the source: active = GI50 up to about 1.1 µM and inactive = higher.
# What was measured:
# Assay in all cases: NCI anticancer screen, dose series, 48 h
# [1] = system: SNB-19
# [2] = system: NCI-H23
# [3] = system: SF-268
# [4] = system: M14
# [5] = system: U-251
# [6] = system: UO-31
# [7] = system: SF-295
# [8] = system: MOLT-4
# [9] = system: NCI-H522
# [10] = system: 786-0
# [11] = system: A498
# [12] = system: CCRF-CEM
# [13] = system: SW-620
# [14] = system: RXF 393
# [15] = system: SF-539
# [16] = system: SK-MEL-28
# [17] = system: IGROV-1
# [18] = system: Malme-3M
# [19] = system: CAKI-1
SMILES,GI50 [1],GI50 [2],GI50 [3],GI50 [4],GI50 [5],GI50 [6],GI50 [7],GI50 [8],GI50 [9],GI50 [10],GI50 [11],GI50 [12],GI50 [13],GI50 [14],GI50 [15],GI50 [16],GI50 [17],GI50 [18],GI50 [19]
CN1N=C(c2ccncc2)OC1c1ccccc1F (configuration not stated),> 100 µM (inactive),> 100 µM (inactive),> 100 µM (inactive),> 100 µM (inactive),> 100 µM (inactive),> 100 µM (inactive),> 100 µM (inactive),> 100 µM (inactive),> 100 µM (inactive),> 100 µM (inactive),> 100 µM (inactive),> 100 µM (inactive),> 100 µM (inactive),> 100 µM (inactive),> 100 µM (inactive),> 100 µM (inactive),> 100 µM (inactive),–,–
Cc1ccc(NC(=O)C(=O)C(C(=O)c2ccc3ccccc3c2)C2OC(=O)c3ccccc32)cc1C (configuration not stated),5.31 µM (inactive),4.79 µM (inactive),7.41 µM (inactive),15.6 µM (inactive),3.92 µM (inactive),11.9 µM (inactive),–,3.3 µM (inactive),3.03 µM (inactive),10 µM (inactive),10.4 µM (inactive),5.2 µM (inactive),14.7 µM (inactive),–,3.02 µM (inactive),10.3 µM (inactive),18.7 µM (inactive),12.7 µM (inactive),8.57 µM (inactive)
O=C1/C(=C/c2ccccc2S)N=C(c2ccccc2)N1c1nc2ccc(Sc3ccccc3)cc2[nH]1,45.3 µM (inactive),37 µM (inactive),38.3 µM (inactive),20.4 µM (inactive),21.3 µM (inactive),36.3 µM (inactive),27.4 µM (inactive),35.4 µM (inactive),22.8 µM (inactive),28.1 µM (inactive),26.2 µM (inactive),21 µM (inactive),29.9 µM (inactive),28.2 µM (inactive),–,36.5 µM (inactive),49.4 µM (inactive),37.8 µM (inactive),34.1 µM (inactive)
NC(=S)NS(=O)(=O)c1ccc(F)cc1,> 100 µM (inactive),> 100 µM (inactive),> 100 µM (inactive),> 100 µM (inactive),> 100 µM (inactive),–,> 100 µM (inactive),> 100 µM (inactive),> 100 µM (inactive),> 100 µM (inactive),–,> 100 µM (inactive),> 100 µM (inactive),> 100 µM (inactive),> 100 µM (inactive),> 100 µM (inactive),> 100 µM (inactive),> 100 µM (inactive),> 100 µM (inactive)
O=C(Nc1ccc(N2C(=O)CSC2c2ccccc2O)cc1)c1ccc(N2C(=O)CSC2c2ccccc2O)cc1 (configuration not stated),31.4 µM (inactive),64.4 µM (inactive),95.1 µM (inactive),23.6 µM (inactive),34 µM (inactive),54.5 µM (inactive),34.4 µM (inactive),> 100 µM (inactive),55.7 µM (inactive),43.7 µM (inactive),–,> 100 µM (inactive),> 100 µM (inactive),55.6 µM (inactive),69.7 µM (inactive),39.1 µM (inactive),> 100 µM (inactive),98.4 µM (inactive),> 100 µM (inactive)
COc1ccc(OC(C(=O)O)c2ccccc2)c2c1CCCC2=O (configuration not stated),> 100 µM (inactive),> 100 µM (inactive),> 100 µM (inactive),> 100 µM (inactive),> 100 µM (inactive),> 100 µM (inactive),> 100 µM (inactive),> 100 µM (inactive),> 100 µM (inactive),> 100 µM (inactive),> 100 µM (inactive),> 100 µM (inactive),> 100 µM (inactive),–,> 100 µM (inactive),> 100 µM (inactive),> 100 µM (inactive),> 100 µM (inactive),> 100 µM (inactive)
CC1(C)CC(=O)C(CC(C(=O)C(=O)Nc2cc(C(F)(F)F)ccc2Cl)C(=O)c2ccco2)C(=O)C1 (configuration not stated),> 100 µM (inactive),> 100 µM (inactive),> 100 µM (inactive),> 100 µM (inactive),> 100 µM (inactive),> 100 µM (inactive),> 100 µM (inactive),> 100 µM (inactive),> 100 µM (inactive),> 100 µM (inactive),46.9 µM (inactive),> 100 µM (inactive),> 100 µM (inactive),–,> 100 µM (inactive),> 100 µM (inactive),> 100 µM (inactive),> 100 µM (inactive),> 100 µM (inactive)
CN(C)C1(N(C)C)Oc2c(c(=O)n(C)c(=O)n2C)C(c2ccc(C(F)(F)F)cc2)C1(F)F (configuration not stated),> 100 µM (inactive),> 100 µM (inactive),> 100 µM (inactive),> 100 µM (inactive),> 100 µM (inactive),> 100 µM (inactive),> 100 µM (inactive),–,–,> 100 µM (inactive),> 100 µM (inactive),> 100 µM (inactive),> 100 µM (inactive),> 100 µM (inactive),–,> 100 µM (inactive),–,–,> 100 µM (inactive)
COc1ccc(OC)c2[nH]c(Sc3c([N+](=O)[O-])ncn3C)nc12,> 10 µM (inactive),17.5 µM (inactive),26.5 µM (inactive),20.3 µM (inactive),28.9 µM (inactive),28.6 µM (inactive),41.8 µM (inactive),–,–,29.3 µM (inactive),31 µM (inactive),–,24.5 µM (inactive),25.2 µM (inactive),18 µM (inactive),24.3 µM (inactive),24.2 µM (inactive),13.5 µM (inactive),17.1 µM (inactive)
COc1cccc([C@@H]2C/C(=N\NC(=O)C(=O)N[C@@H](C)c3ccccc3)c3cc4c(cc3N2)OCO4)c1,35 µM (inactive),–,29.9 µM (inactive),34.1 µM (inactive),> 100 µM (inactive),> 100 µM (inactive),36.6 µM (inactive),21 µM (inactive),–,82 µM (inactive),47.4 µM (inactive),28.1 µM (inactive),16 µM (inactive),> 100 µM (inactive),23.8 µM (inactive),> 100 µM (inactive),–,–,48.1 µM (inactive)
NCC(=O)OCN1C(=O)C2C3C=CC(C2C1=O)C1C2C(=O)N(COC(=O)CN)C(=O)C2C31 (configuration not stated),48.8 µM (inactive),29.2 µM (inactive),23.4 µM (inactive),18.9 µM (inactive),18.7 µM (inactive),56.8 µM (inactive),53.7 µM (inactive),16.9 µM (inactive),–,19.6 µM (inactive),87.5 µM (inactive),21 µM (inactive),24.4 µM (inactive),24 µM (inactive),18.9 µM (inactive),19.5 µM (inactive),40.2 µM (inactive),–,32.9 µM (inactive)
Cc1ccc(S(=O)(=O)N/N=C\c2c3ccccc3[n+]([O-])c3ccccc23)cc1,11.9 µM (inactive),4.48 µM (inactive),4.23 µM (inactive),4.57 µM (inactive),3.93 µM (inactive),14.1 µM (inactive),6.76 µM (inactive),0.612 µM (active),2.02 µM (inactive),2.01 µM (inactive),3.8 µM (inactive),0.476 µM (active),2.18 µM (inactive),–,–,3.78 µM (inactive),9.25 µM (inactive),12.2 µM (inactive),6.28 µM (inactive)
